# Data taken from US9120789B2, “1-(5-tert-butyl-2-phenyl-2H-pyrazol-3-yl)-3-[2-fluoro-4-(1-methyl-2-oxo-2,3-dihydro-1H-imidazo[4,5-b]pyridin-7-yloxy)-phenyl]-urea and related compounds and their use in therapy” (CANCER RESEARCH TECHNOLOGY LIMITED, priority 2010, dated 2015).
# What was measured:
# [1] = tested on: WM266.4 melanoma cell line (mutant BRAF); assay: Assay C - SRB cell proliferation assay, WM266.4; assay type: cell-based; conditions: Homo sapiens, WM 266-4, 120 h; WM266.4, 5 days growth
# Experimental: (§1) Values for the blank (no cells) are subtracted from all values. The DMSO controls are set as 100% activity and assay points (the response) are calculated as a percentage of the DMSO control. Data are plotted using Graphpad Prism software and a non-linear regression line is calculated using a variable slope sigmoidal dose-response equation: Y=Bottom+[Top−Bottom]/[1+10^((Log EC50−X)*HillSlope)] where X is the logarithm of concentration and Y is the response). The IC50 generated by this procedure is the concentration of the drug that produces a percentage control fluorescence value midway between the saturation, and zero-effect plateaus. Three independent assays are usually performed and the mean IC50 is reported. Biological Methods—Assay C—SRB Cell Proliferation Assay (SRB GI50)
# Cell lines (e.g., WM266.4 and A375M melanoma cell lines; SW620 colorectal carcinoma cell line) are routinely cultured in DMEM or RPMI1640 supplemented with 10% foetal bovine serum, at 37° C., in 10% CO2 water saturated atmosphere. Cultures are maintained in exponential growth phase by sub-culturing before having become confluent (3-5 day intervals). Single cell suspensions are prepared by harvesting an 80 cm^2 tissue culture flask with 5 mL commercial trypsin EDTA. After 5 minutes, the detached cells are mixed with 5 mL fully complemented culture medium and centrifugally pelleted (1000 rpm for 7 minutes). After aspirating the supernatant, the cell pellet is re-suspended in 10 mL fresh medium and the cells fully disaggregated by drawing the whole volume up/down 5 times through a 19-gauge needle. The concentration of the cells is determined using a haemocytometer ( 1/10 dilution). A suitable volume to give at least a 2-fold excess for the number of tests being conducted, typically 100-200 mL, is prepared by diluting the cell suspension to 10,000-40,000/mL, and 100 μL/well dispensed into 96 well plates using a programmable 8-channel peristaltic pump, giving 1000-4000 cells/well, leaving column 12 blank. The plates are returned to the incubator for 24 hours to allow the cells to re-attach.
# The compounds being tested are prepared at 10 mM in DMSO. Aliquots (24 μL) are diluted into 1.2 mL culture medium giving 200 μM, and 10 serial dilutions of 3× performed by transferring 80 μL to 160 μL. Aliquots (100 μL) of each dilution are added to the wells, using an 8-channel pipettor, thus performing a final further 2× dilution, and giving doses ranging from 100 μM to 0.005 μM. Column 11 receives plain culture medium only. Each compound is tested in quadruplicate, each replicate being the average of four wells.
# After a further 5 days growth, the plates are emptied, and the cells are fixed in 10% trichloroacteic acid for 30 minutes at 4° C. After thorough rinsing in running tap water, the plates are dried, and stained by adding 50 μL of a solution of 0.1% sulphorhodamine-B in 1% acetic acid, for 10 minutes at room temperature. The stain is poured out and the plates thoroughly rinsed under a stream of 1% acetic acid, thus removing unbound stain, and dried. The bound stain is taken into solution by addition of 100 μL Tris buffer pH 8, followed by 10 minutes on a plate-shaker (approximately 500 rpm). The absorbance at 540 nm in each well (being proportional to the number of cells present) is determined using a plate reader.
# After averaging the blank values in column 12 this was subtracted from all values, and results expressed as a percentage of the untreated value (column 11). […] The GI50 generated by this procedure is the concentration of the drug that produces a percentage control A540 midway between the saturation, and zero-effect plateaus.
# [2] = tested on: pERK in mutant BRAF WM266.4 cells; assay: Assay B - cell based phospho-ERK assay; conditions: Homo sapiens, WM 266-4, 6 hours incubation
# Experimental: as §1, with “(Empty Vector)” for “(no cells)”, “response.” for “response).”, “B—Cell Based Phosho-ERK” for “C—SRB Cell Proliferation”, “Assay” for “Assay (SRB GI50)”
# Compounds were assessed using a cell-based assay which was performed according to the following protocol.
# Plate out 16,000 mutant BRAF WM266.4 cells/well in 99 μL medium in a 96-well plate.
# 1. Add 1 μL inhibitor (test compound) to the cells (total […]).
# 2. Incubate the cells with test compound for 6 hours at 37° C.
# 3. Aspirate off the solution from all of the wells.
# 4. Fixate the cells with 100 μL 4% formaldehyde/0.25% Triton X-100 PBS per well.
# 5. Incubate the plate for 1 hour at 4° C.
# 6. Aspirate off the fixing solution and add 300 μL TBS per well.
# 7. Leave the plate overnight at 4° C.
# 1. Wash the plate 2× with 200 μL PBS per well.
# 2. Block with 100 μL 5% dried milk in TBS.
# 3. Incubate the plate for 20 minutes at 37° C.
# 4. Wash the plate 2× with 0.1% tween/H2O.
# 5. Add 50 μL of 3 μg/mL primary antibody pERK (Sigma M8159), diluted in 5% milk powder/TBS, to each well.
# 6. Incubate the plate for 2 hours at 37° C.
# 7. Wash the plate 3× with 0.1% tween/H2O.
# 8. Add 50 μL of 0.45 μg/mL secondary Europium-labelled anti-mouse antibody (Perkin Elmer) to each well.
# 9. Incubate the plate for 1 hour at 37° C.
# 10. Wash the plate 3× with 0.1% tween/H2O.
# 11. Add 100 μL enhancement solution (Perkin Elmer) to each well.
# 12. Leave the plate for approximately 10 minutes at room temperature before gently shaking the plate.
# 13. Read Europium Time Resolved Fluorescence in Victor2.
# 14. Wash the plate 2× with 0.1% tween/H2O.
# 15. Measure the protein concentration with BCA (Sigma) by adding 200 μL of solution per well.
# 16. Incubate the plate for 30 minutes at 37° C.
# 17. Read absorbance levels at 570 nm in a plate reader.
# Note that Europium counts are normalised for protein levels by dividing counts by absorbance.
# as §1
# [3] = molecular target: B-RAF (Homo sapiens, UniProt P15056); assay: Assay A - DELFIA kinase assay; assay type: biochemical; conditions: 100 μM ATP; mean of usually three assays; read-out: Assay A BRAF IC50
# B-RAF, sequence (P15056 whole entry): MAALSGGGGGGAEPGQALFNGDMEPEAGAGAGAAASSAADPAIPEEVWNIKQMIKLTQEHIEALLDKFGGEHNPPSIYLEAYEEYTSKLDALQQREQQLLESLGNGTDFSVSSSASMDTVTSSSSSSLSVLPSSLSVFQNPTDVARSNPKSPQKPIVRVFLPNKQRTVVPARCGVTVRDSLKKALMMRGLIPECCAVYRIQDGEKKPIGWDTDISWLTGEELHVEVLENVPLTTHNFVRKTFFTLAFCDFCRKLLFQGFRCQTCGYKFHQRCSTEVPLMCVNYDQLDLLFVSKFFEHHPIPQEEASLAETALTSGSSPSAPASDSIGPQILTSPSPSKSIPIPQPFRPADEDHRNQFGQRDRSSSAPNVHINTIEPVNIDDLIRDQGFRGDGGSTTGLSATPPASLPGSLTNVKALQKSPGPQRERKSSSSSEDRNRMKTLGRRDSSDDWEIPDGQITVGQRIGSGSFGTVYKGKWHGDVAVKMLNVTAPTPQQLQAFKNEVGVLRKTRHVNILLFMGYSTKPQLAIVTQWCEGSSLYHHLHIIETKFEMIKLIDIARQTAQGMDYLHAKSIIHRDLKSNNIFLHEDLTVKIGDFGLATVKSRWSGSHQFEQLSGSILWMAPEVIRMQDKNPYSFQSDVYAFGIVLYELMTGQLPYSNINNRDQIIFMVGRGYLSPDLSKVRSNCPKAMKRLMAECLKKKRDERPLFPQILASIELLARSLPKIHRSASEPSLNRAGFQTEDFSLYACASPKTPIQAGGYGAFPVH
# Experimental: Biological Methods—Assay A—DELFIA Kinase Assay
# Compounds were assessed by a kinase assay performed according to the following protocol.
# The following reagents were prepared:
# DELFIA Kinase Buffer (DKB):
# DKB1 (DKB with B-RAF and MEK Protein):
# Combine 4950 μL of DKB and 50 μL of 2.5 mg/mL GST-MEK stock (to give 1 mg of MEK per 40 μL). Then add 22.5 μL of B-RAF to give ˜0.2 μL of B-RAF per 40 μL.
# DKB2 (DKB with MEK Protein):
# Combine 4950 μL of DKB and 50 μL of 2.5 mg/mL GST-MEK stock (to give […] of MEK per 40 μL). Use 500 μL of this for the blow out (BO) and the empty vector (EV) control.
# 100 mM stock, dilute to 500 μM to give 100 μM final concentration in assay.
# Inhibitors (Test Compounds):
# Phospho-MEK1/2 CST #9121S diluted 1:1000 in DELFIA assay buffer (AB). Pre-incubate antibody in the AB for 30 minutes at room temperature prior to use.
# Anti-rabbit-Eur labelled secondary Perkin Elmer #AD0105 diluted 1:1000 in DELFIA assay buffer (AB). Pre-incubate antibody in the AB for 30 minutes at room temperature prior to use. (Primary and secondary antibodies were incubated together.)
# DELFIA assay buffer Perkin Elmer #4002-0010.
# DELFIA enhancement solution Perkin Elmer #4001-0010.
# 96 well glutathione-coated black plate Perbio #15340.
# 1. Preblock wells with 5% milk in TBS for 1 hour.
# 2. Wash wells 3× with 200 μL TBS.
# 3. Plate out 40 μL of DKB1 for all inhibitors (test compounds), DMSO control, and optionally other control compounds.
# 4. Plate out 40 μL of DKB2 for BO and EV wells.
# 5. Add inhibitors (test compounds) at 0.5 μL per well according to desired plate layout.
# 6. Add 0.5 μL DMSO to vehicle control wells.
# 7. Add 2 μL of B-RAF to BO and EV wells.
# 8. Pre-incubate with inhibitors (test compounds) for 10 minutes at room temperature with shaking.
# 9. Add 10 μL of 500 μM ATP stock, in DKB, to give 100 μM assay concentration.
# 10. Seal plates with TopSeal and incubate at room temperature with shaking for 45 minutes.
# 11. Wash plates 3× with 200 μL 0.1% Tween20/Water to terminate reaction.
# 12. Add 50 μL per well of antibody mix and incubate for 1 hour at room temperature with shaking.
# 13. Wash plates 3× with 200 μL 0.1% Tween20/Water.
# 14. Add 100 μL DELFIA enhancement solution per well, cover in foil, and incubate at room temperature for 30 minutes with shaking.
# 15. Read on Victor using Europium protocol.
# as §1, with “(Empty Vector)” for “(no cells)”, “response.” for “response).”, “B—Cell Based Phosho-ERK” for “C—SRB Cell Proliferation”, “Assay” for “Assay (SRB GI50)”
GI50 [1] [nM],IC50 [2] [nM],IC50 [3] [nM],Compound
57,20,197,"Cc1ccc(-n2nc(C(C)(C)C)cc2NC(=O)Nc2ccc(Oc3ccnc4[nH]c(=O)n(C)c34)cc2F)cc1 [AA-02, 1-(3-Tert-butyl-1-p-tolyl-1H-pyrazol-5-yl)-3-(2-fluoro-4-(1-N-methyl-2-oxo-2,3-dihydro-1H-imidazo[4,5-b]pyridin-7-yloxy)phenyl)urea]"
121,60,302,"Cn1c(=O)[nH]c2nccc(Oc3ccc(NC(=O)Nc4cc(C(C)(C)C)nn4-c4ccc(Cl)cc4)c(F)c3)c21 [AA-03, 1-(3-Tert-butyl-1-(4-chlorophenyl)-1H-pyrazol-5-yl)-3-(2-fluoro-4-(1-N-methyl-2-oxo-2,3-dihydro-1H-imidazo[4,5-b]pyridin-7-yloxy)phenyl)urea]"
